According to US20050148495A1, “Methods and materials including for treating acne” (priority 2003, published 2005):
Values after ≈ are worked out from the molar mass of the structure shown. Where two headings read alike, the source gives them in different places. Non-standard residues stand in square brackets, D forms with d. Residues, ends and D or L forms follow the SMILES beside them. d1Nal = N[C@H](Cc1cccc2ccccc12)C(=O)O

Key:
[1] = system: P. acnes strain ATCC 6919; test: Kill curves / kill kinetics; type: cell-based, Propionibacterium acnes
Procedure: Kill curves were generated by incubating P. acnes strain ATCC 6919 with formulation buffer solutions of XMP.629 or other antibiotics at concentrations of […]. Samples were removed and plated at the indicated time periods. After incubation, colonies were counted and the kill kinetics determined for each drug.
For example, at a higher concentration of 4 μg/mL, a rapid reduction of viable cells in 8 hours to undetectable levels was observed. […] In additional kill curve studies against P. acnes, XMP.629 was bactericidal within 6 hours of exposure.

P. avidum = type: cell-based, Propionibacterium avidum
Procedure: This example addresses studies relating to the antimicrobial activities of XMP.629. An in vitro assessment of antibiotic activity in XMP.629 and various known antibiotics against a representative panel of bacterial strains associated with acne was conducted. A broth dilution methodology was employed using guidelines established by National Committee for Clinical Laboratory Standards (NCCLS) for anaerobic organisms to establish an antibacterial profile for XMP.629. Assays to determine the minimal bactericidal concentrations (MBC) and minimal inhibitory concentration (MIC) were conducted for XMP.629 and other known antibiotics. Furthermore, test to determine post antibiotic effect (PAE) of XMP.629 were done.
Inoculum from a representative panel of bacterial strains associated with acne, such as P. acnes, P. avidum, P. granulosum, and Staphylococcus epidermis was prepared by suspending approximately 5-10 isolated bacterial colonies in pre-reduced MicroScan® Inoculum Water (Dade Behring, Deerfield, Ill.), and growing the bacterial suspension to log phase (approximately 48 hrs). An inoculum of between 1-5×10^6/mL was achieved by adding 100 μL of the suspension to 25 mL Brain Heart Infusion Broth (BHI) (Anaerobe Systems, Morgan Hill, Calif.).
A stock solution of XMP.629 dissolved in water at a concentration of 4.0 mg/mL was prepared. Dilute solutions of XMP.629 at concentrations ranging from about 1.25 to about 160 μg/mL were made in either water or formulation buffer (130 mM sodium chloride, 0.2% P103 (poloxamer 333), and 0.10% EDTA, pH 7.3). Aqueous stock solutions of clindamycin and erythromycin were prepared in water.
Each tube, containing a final volume of 1 mL, was mixed by vortexing. Control tubes containing only water or formulation buffer were prepared for each isolate. Initial growth controls were determined by removing 10 μL from the water control tube and diluting it by 100 fold. From this dilution, 10 μL was used for inoculation and for spreading over the surface onto Laked Blood Agar (LBA) (Anaerobe Systems, Morgan Hill, Calif.) plates. The tubes and plates were incubated in an anaerobic atmosphere at 37° C. for 48 h. After incubation, the tubes were mixed and 10 μL samples were removed from each tube for additional plating. These plates were then further incubated in an anaerobic atmosphere at 37° C. for 48-72 h and the resulting colonies were counted. After adjusting for the dilution factor, the lowest concentration of drug or combination of drugs reducing the inoculum by ≧99.9% was considered to be the minimum bactericidal concentration (MBC). MBC50 and 90 values represent where 50 and 90%, respectively, of the tested strain's MBC values are equal to or less than the indicated concentration. The lowest concentration of antibiotic(s) that inhibited visible growth in the culture tubes was considered to be the minimal inhibitory concentration (MIC).
For comparison, additional Propionibacterium strains, were tested.

[2] = 0.1, 0.5, or 1% gel on 15% BSA; limit of quantification 1 ng/mL
Procedure: XMP.629 acetate gel (0.1, 0.5, or 1% XMP.629 acetate per gram gel) was applied to the skin of mini-pigs. The dose of gel in each group was calculated as that amount which would cover 15% of the body surface area (BSA) at a rate of 2 mg of gel per cm2 of BSA. The application area was washed 24 hours following XMP.629 acetate gel application. Blood samples were collected at selected times up to 168 hours after dosing, plasma was extracted, and assayed for XMP.629 using an LC/MS/MS assay (limit of quantification=1 ng/mL).

Enterococcus = type: cell-based
Procedure: Control tubes containing only water or formulation buffer were prepared for each isolate. Initial growth controls were determined by removing 10 μL from the water control tube and diluting it by 100 fold. From this dilution, 10 μL was used for inoculation and for spreading over the surface onto Laked Blood Agar (LBA) (Anaerobe Systems, Morgan Hill, Calif.) plates. The tubes and plates were incubated in an anaerobic atmosphere at 37° C. for 48 h. […] MBC50 and 90 values represent where 50 and 90%, respectively, of the tested strain's MBC values are equal to or less than the indicated concentration.

[3] = RMA 8375, Formulation Buffer Solvent, Study 1
[4] = RMA 8375, Formulation Buffer Solvent, Study 2
[5] = RMA 8375, Water Solvent, Study 1
[6] = RMA 8375, Water Solvent, Study 2
[7] = RMA 8376, Formulation Buffer Solvent, Study 1
[8] = RMA 8376, Formulation Buffer Solvent, Study 2
[9] = RMA 8376, Water Solvent, Study 1
[10] = RMA 8376, Water Solvent, Study 2
[11] = RMA 9497, Formulation Buffer Solvent, Study 1
[12] = RMA 9497, Formulation Buffer Solvent, Study 2
[13] = RMA 9497, Water Solvent, Study 1
[14] = RMA 9497, Water Solvent, Study 2
[15] = RMA 13009, Formulation Buffer Solvent, Study 1
[16] = RMA 13009, Formulation Buffer Solvent, Study 2
[17] = RMA 13009, Water Solvent, Study 1
[18] = RMA 13009, Water Solvent, Study 2

## CC(C)C[C@@H](NC(=O)[C@H](N)CCCCN)C(=O)N[C@H](Cc1ccccc1)C(=O)N[C@H](CCCNC(=N)N)C(=O)N[C@H](Cc1cccc2ccccc12)C(=O)N[C@H](CCC(N)=O)C(=O)N[C@H](C)C(=O)N[C@H](CCCCN)C(=O)N[C@H](Cc1cccc2ccccc12)C(N)=O [XMP.629, NH2-lys-leu-phe-arg-(3-(1-naphthyl)-ala)-gln-ala-lys-(3-(1-naphthyl)-ala)-CONH2] (H-[dK][dL][dF][dR][d1Nal][dQ][dA][dK][d1Nal]-NH2)
[1]; 4 μg/mL
  time to reduction of viable cells to undetectable levels: 8 h
[1]; additional kill curve studies against P. acnes
  exposure time until bactericidal: ≤ 6 h
[1]; all concentrations tested
  culture at 19 hours: no detected organisms
[1]; depending on dose
  contact time to kill the microorganisms: up to 10 hours
P. avidum; P. avidum, 4 strains
  MBC50: 1 µg/mL
  MBC90: 2 µg/mL
P. avidum; P. avidum, 4 strains, in µg/mL
  MBC Range: 1-2
P. avidum; [3]
  MBC: 0.50 µg/mL
  MIC: 0.25 µg/mL
P. avidum; [4]
  MBC: 1 µg/mL
  MIC: 0.25 µg/mL
P. avidum; [5]
  MBC: 1 µg/mL
  MIC: 0.5 µg/mL
P. avidum; [6]
  MBC: 2 µg/mL
  MIC: 1 µg/mL
P. avidum; [7]
  MBC: 0.50 µg/mL
  MIC: 0.5 µg/mL
P. avidum; [8]
  MBC: 2 µg/mL
  MIC: 0.25 µg/mL
P. avidum; [9]
  MBC: 2 µg/mL
  MIC: 1 µg/mL
P. avidum; [10]
  MBC: 2 µg/mL
  MIC: 1 µg/mL
P. avidum; [11]
  MBC: 1 µg/mL
  MIC: 0.25 µg/mL
P. avidum; [12]
  MBC: 2 µg/mL
  MIC: 0.25 µg/mL
P. avidum; [13]
  MBC: 2 µg/mL
  MIC: 2 µg/mL
P. avidum; [14]
  MBC: 4 µg/mL
  MIC: 1 µg/mL
P. avidum; [15]
  MBC: 0.50 µg/mL
  MIC: 0.25 µg/mL
P. avidum; [16]
  MBC: 1 µg/mL
  MIC: 0.25 µg/mL
P. avidum; [17]
  MBC: 1 µg/mL
  MIC: 1 µg/mL
P. avidum; [18]
  MBC: 1 µg/mL
  MIC: 1 µg/mL
[2]
  plasma concentrations after topical administration: no measurable plasma concentrations
Enterococcus
  MIC90, XMP.629 data reported as MBC values: 4 µg/mL (≈ 3.12 µM)
Enterococcus; in FB (formulation buffer)
  MIC90, XMP.629 data reported as MBC values: 0.5 µg/mL (≈ 0.39 µM)
